“Also recorded” adds a separate entry of the source.
Columns and labels:
Format in all cases: cell-based, human
[1] = tested on: Hep3B cells; test: BrdU incorporation (proliferation) in Hep3B cells
Experimental: Light microscopic images (10X) of BrdU immunostained cells are also shown. Hep3B cells were maintained in serum-free conditions for 24 hours and were pre-treated with AF-353 (5 μM) for 30 minutes, prior to treatment with ATP (100 μM) for 24 hours. BrdU-positive cells are expressed as a percentage of total number of cells. Data represents mean±SEM, n=3-6, *p<0.05 vs untreated (un). To determine whether P2 purinergic receptor activation influences HCC cell proliferation, BrdU incorporation was assessed in HCC cells maintained in SFM for 24 hours and treated with ATP for 24 hours. […] Hep3B, 46%; SNU-387, 47% and PLC/PRF/5, 24%), identifying nucleotides as liver cancer cell mitogens (FIG. 7A). Normal human primary hepatocytes isolated from healthy adults (no known history of HCC) in suspension or freshly-frozen prior to shipment (Cryoport Systems, CA) were purchased from Triangle Research Labs, NC. […] Formalin-fixed and paraffin embedded liver sections from HCC patients were analyzed by immunohistochemistry with anti-P2X3 antibody (Abcam, Cambridge, Mass.). […] BrdU positive cells were counted and expressed as a percentage of the total number of cells in ten randomly selected high-power fields (20×) per coverslips.

[2] = tested on: PLC/PRF/5 cells; test: BrdU incorporation (proliferation) in PLC/PRF/5 cells; details: SFM 24 hours, ATP 24 hours
Experimental: To determine whether P2 purinergic receptor activation influences HCC cell proliferation, BrdU incorporation was assessed in HCC cells maintained in SFM for 24 hours and treated with ATP for 24 hours. ATP treatment alone was sufficient to induce proliferation in each of these cell lines (Huh7, 34%; Hep3B, 46%; SNU-387, 47% and PLC/PRF/5, 24%), identifying nucleotides as liver cancer cell mitogens (FIG. 7A).
Normal human primary hepatocytes isolated from healthy adults (no known history of HCC) in suspension or freshly-frozen prior to shipment (Cryoport Systems, CA) were purchased from Triangle Research Labs, NC. Fresh hepatocytes were plated on collagen-coated tissue culture plates or glass coverslips in Williams E complete media with additives (10% fetal bovine serum, 2 mM glutamine, […] insulin, 4 ng/ml glucagon, […] transferrin, 2.5 ng/ml sodium selenite, 10,000 U/ml penicillin, […] streptomycin, 50 g/ml gentamycin) for 3 h to ensure hepatocyte adherence to plates. […]
Formalin-fixed and paraffin embedded liver sections from HCC patients were analyzed by immunohistochemistry with anti-P2X3 antibody (Abcam, Cambridge, Mass.). […] BrdU positive cells were counted and expressed as a percentage of the total number of cells in ten randomly selected high-power fields (20×) per coverslips.

[3] = tested on: Hep3B cells; test: MTT assay of cell proliferation and viability, Hep3B; details: ATP 100 μM, 18 h
Experimental: Normal human primary hepatocytes isolated from healthy adults (no known history of HCC) in suspension or freshly-frozen prior to shipment (Cryoport Systems, CA) were purchased from Triangle Research Labs, NC. Fresh hepatocytes were plated on collagen-coated tissue culture plates or glass coverslips in Williams E complete media with additives (10% fetal bovine serum, 2 mM glutamine, […] insulin, 4 ng/ml glucagon, […] transferrin, 2.5 ng/ml sodium selenite, 10,000 U/ml penicillin, […] streptomycin, 50 g/ml gentamycin) for 3 h to ensure hepatocyte adherence to plates. Subsequently, hepatocytes were maintained in Williams E minimal media free from serum and growth factors for 24 h prior to treatment. Human hepatocellular carcinoma derived Huh7, and Hep3B, were cultured in Minimum Essential Medium Eagle (MEM); SNU-387 was cultured in Roswell Park Memorial Institute (RPMI) medium and PLC/PRF/5 cultured in Dulbecco's Modified Eagle's medium (DMEM). All maintenance culture media were supplemented with 10% fetal bovine serum (FBS), L-Glutamine (2 mM), penicillin (100 units/ml) and streptomycin ([…]) at 37° C. and 5% CO2. […]
Cell viability was determined using the 3-(4, 5-dimethylthiazol-2-yl)-2,5-diphenyltetrazolium (MTT, Sigma) assays. […] After shaking the plates for 30 min, the absorbance at 570 nm was measured (background subtraction at […]).

[4] = tested on: SNU-387 cells; test: Western blotting of cyclin D3 in SNU-387 cells; details: ATP 24 hours, serum-free
Experimental: HCC cells (Huh7, Hep3B, SNU-387, and PLC/PRF/5) maintained in serum-free conditions were treated with ATP for 24 hours and total protein extracts were analyzed by Western blotting for cyclin D3 expression. The α-tubulin was utilized as the protein loading control. Data represents mean±SD, n=3-6, *p<0.05 vs untreated (un).
Normal human primary hepatocytes isolated from healthy adults (no known history of HCC) in suspension or freshly-frozen prior to shipment (Cryoport Systems, CA) were purchased from Triangle Research Labs, NC. […]
Total protein extracts were obtained by homogenizing cells in total lysis buffer (50 mM Tris-HCl, pH 7.5, 0.5 M NaCl, 2 mM EGTA, 2 mM EDTA, 1.0% Triton X-100, 0.25% Deoxycholate, 1 m/ml pepstatin, 1.0 m/ml leupeptin, 1.0 m/ml aprotinin, 1.0 mM phenylmethylsulfonyl fluoride, 1.0 mM Dithiothreitol, 2.0 mM activated Na3VO4, and 2.0 mM NaF) and centrifuging at 14,000 rpm for 10 min (4° C.). Equal amounts of total proteins as determined by BCA protein Assay (Pierce, Rockford, Ill.) were analyzed by Western blotting. […]

SMILES	effect on ATP-mediated induction of BrdU incorporation ([1]; AF-353 5 μM pre-treatment 30 minutes, ATP 100 μM 24 hours)	proliferation (BrdU incorporation) induced by ATP ([1]; SFM 24 hours, ATP 24 hours) [%]	proliferation (BrdU incorporation) induced by ATP [2] [%]	increase in cell proliferation and viability (MTT) [3] [%]	cyclin D3 protein expression [4] [fold]
COc1cc(C(C)C)c(Oc2cnc(N)nc2N)cc1I [AF-353]	completely attenuated; also recorded: attenuates	–	–	–	–
Nc1ncnc2c1ncn2[C@@H]1O[C@H](COP(=O)(O)OP(=O)(O)OP(=O)(O)O)[C@@H](O)[C@H]1O [ATP]	–	46	24	81	1.6

Reference: patent US20180271863A1, “TARGETING P2 PURINERGIC RECEPTORS TO TREAT HEPATOCELLULAR CARCINOMA (HCC)” (Baylor College of Medicine, priority 2015, published 2018)
